In patent US7666890B2, “Synthesis and herbicidal activity of 1- (2-substituted benzo[d]thiazol-5-yl)-1H-1,2,4-triazol-5(4H)-one derivatives” (Huazhong Normal University, priority 2007, dated 2010):

What was measured:
Brassica juncea = test: Test of herbicidal activities (greenhouse pot method); format: in vivo; conditions: Brassica juncea, 360 h; single dose 300 g ai./h, treated before/after germination, 15 days later, greenhouse pot; read-out: Herbicidal activity Brassica juncea (inhibition level)
How it was run: (§1)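 Greenhouse pot test on weeds grown in mixed garden/mountain/humus soil at 15-30° C; pre- and post-emergence spray at a single dose of 300 g ai./h via automatic spraying tower (0.2 MPa). Inhibition scored after 15 days into five levels A (90-100%) to E (<50%); triplicate with blank control.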

Echinochloa crusgalli = test: as above; format: in vivo; conditions: Echinochloa crus-galli, 360 h; single dose 300 g ai./h, treated before/after germination, 15 days later, greenhouse pot; read-out: Herbicidal activity Echinochloa crusgalli (inhibition level)
How it was run: as §1

Setaria viridis = test: as above; format: in vivo; conditions: Setaria viridis, 360 h; single dose 300 g ai./h, treated before/after germination, 15 days later, greenhouse pot; read-out: Herbicidal activity Setaria viridis (inhibition level)
How it was run: as §1

Amaranthus retroflexus = test: as above; format: in vivo; conditions: Amaranthus retroflexus, 360 h; single dose 300 g ai./h, treated before/after germination, 15 days later, greenhouse pot; read-out: Herbicidal activity Amaranthus retroflexus (inhibition level)
How it was run: as §1

Digiatria sanguinalis = test: as above; format: in vivo; conditions: 360 h; single dose 300 g ai./h, treated before/after germination, 15 days later, greenhouse pot; read-out: Herbicidal activity Digiatria sanguinalis (inhibition level)
How it was run: as §1

Chenopodium album = test: as above; format: in vivo; conditions: Chenopodium album, 360 h; single dose 300 g ai./h, treated before/after germination, 15 days later, greenhouse pot; read-out: Herbicidal activity Chenopodium album (inhibition level)
How it was run: as §1

Row | melting point [°C] | Compound | inhibition at 300 g/ha (Brassica juncea) [%] | inhibition at 300 g/ha (Echinochloa crusgalli) [%] | inhibition at 300 g/ha (Setaria viridis) [%] | inhibition at 300 g/ha (Amaranthus retroflexus) [%] | inhibition at 300 g/ha (Digiatria sanguinalis) [%] | inhibition at 300 g/ha (Chenopodium album) [%]
1 | 196 to 198 | Cc1nn(-c2cc3nc(S(=O)(=O)Cc4ccccc4Cl)sc3cc2Cl)c(=O)n1C(F)F [Compound 39, 1-(2-(2-chlorobenzylsulfonyl)-6-chlorobenzo[d]thiazol-5-yl)-4-(difluoromethyl)-3-methyl-1H-1,2,4-triazol-5(4H)-one] | 80 to 90 | < 50 | 60 to 80 | 80 to 90 | 60 to 80 | 60 to 80
2 | 162 to 164 | Cc1nn(-c2cc3nc([S+]([O-])Cc4ccccc4)sc3cc2F)c(=O)n1C (stereo not drawn) [Compound 101, 1-(2-(benzylsulfinyl)-6-fluorobenzo[d]thiazol-5-yl)-3,4-dimethyl-1H-1,2,4-triazol-5(4H)-one] | 50 to 60 | 80 to 90 | 60 to 80 | 60 to 80 | 60 to 80 | 80 to 90
3 | 199 to 201 | Cc1nn(-c2cc3nc([S+](C)[O-])sc3cc2F)c(=O)n1C (stereo not drawn) [Compound 102, 1-(6-fluoro-2-(methylsulfinyl)benzo[d]thiazol-5-yl)-3,4-dimethyl-1H-1,2,4-triazol-5(4H)-one] | 60 to 80 | < 50 | 60 to 80 | 80 to 90 | 50 to 60 | 90 to 100
